Laboratory results as given in the supplement of paper PMC4862054.

Legend:
Conditions in all cases: incubation time: 72 h
MDA-MB-231 [1] = test: drug sensitivity score (DSS), CellTox Green (DSS (AUC-based score)); higher = stronger drug effect (viability inhibition or cytotoxicity); extreme values may be limits of the assay
How it was run: (§1)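 For 72 h, breast cancer cell lines seeded at 20 µl suspension per well in 384-well plates were incubated with compound at 5 concentrations in 10-fold steps spanning a 10,000-fold range that differed by compound. The first reading was CellTox Green fluorescence at 485/520 nm, and the second was CellTiter-Glo luminescence after 10 min at room temperature. Both were normalised per plate to 0.1 % DMSO and a positive kill control, and the drug sensitivity score was obtained from the area under the fitted dose-response curve.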

MFM-223 [2] = test: as above
How it was run: as §1

CAL-148 [3] = test: as above
How it was run: as §1

HDQ-P1 [4] = test: as above
How it was run: as §1

HCC1599 [5] = test: as above
How it was run: as §1

MDA-MB-453 [6] = test: as above
How it was run: as §1

HCC1937 [7] = test: as above
How it was run: as §1

BT-474 [8] = test: as above
How it was run: as §1

DU-4475 [9] = test: as above
How it was run: as §1

MDA-MB-436 [10] = test: as above
How it was run: as §1

CAL-51 [11] = test: as above
How it was run: as §1

MDA-MB-231 [12] = test: normalised viability (% of control), CellTiter-Blue; higher = more viable cells (about 100 = DMSO control)
How it was run: (§2)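 Breast cancer cell lines were treated for 72 h in 384-well format and measured by CellTiter-Blue fluorescence at 560/590 nm. Results were normalised per plate to vehicle (100) and a positive kill control (0). The entry is normalised viability at a single listed concentration of the series.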

MFM-223 [13] = test: as above
How it was run: as §2

CAL-148 [14] = test: as above
How it was run: as §2

HDQ-P1 [15] = test: as above
How it was run: as §2

CAL-120 = test: as above
How it was run: as §2

HCC1599 [16] = test: as above
How it was run: as §2

MDA-MB-453 [17] = test: as above
How it was run: as §2

HCC1937 [18] = test: as above
How it was run: as §2

BT-474 [19] = test: as above
How it was run: as §2

SK-BR-3 = test: as above
How it was run: as §2

DU-4475 [20] = test: as above
How it was run: as §2

CAL-85-1 = test: as above
How it was run: as §2

MDA-MB-436 [21] = test: as above
How it was run: as §2

Hs578T = test: as above
How it was run: as §2

HCC1143 = test: as above
How it was run: as §2

CAL-51 [22] = test: as above
How it was run: as §2

BT-549 = test: as above
How it was run: as §2

MDA-MB-468 = test: as above
How it was run: as §2

Compound: CCCCCCCCc1ccc(CCC(N)(CO)CO)cc1 [Fingolimod]
- drug sensitivity score (MDA-MB-231 [1]): 6.51
- drug sensitivity score (MFM-223 [2]): 0.724
- drug sensitivity score (CAL-148 [3]): 0
- drug sensitivity score (HDQ-P1 [4]): 2.47
- drug sensitivity score (HCC1599 [5]): 0
- drug sensitivity score (MDA-MB-453 [6]): 1.86
- drug sensitivity score (HCC1937 [7]): 17.9
- drug sensitivity score (BT-474 [8]): 5.23
- drug sensitivity score (DU-4475 [9]): 0
- drug sensitivity score (MDA-MB-436 [10]): 2.64
- drug sensitivity score (CAL-51 [11]): 1.3
- normalised viability (MDA-MB-231 [12]; 1000 nM): 86.8%
- normalised viability (MFM-223 [13]; 1000 nM): 106%
- normalised viability (CAL-148 [14]; 30 nM): 84%
- normalised viability (HDQ-P1 [15]; 30 nM): 126%
- normalised viability (CAL-120; 1000 nM): 88.5%
- normalised viability (HCC1599 [16]; 1000 nM): 113%
- normalised viability (MDA-MB-453 [17]; 30 nM): 100%
- normalised viability (HCC1937 [18]; 1000 nM): 95.4%
- normalised viability (BT-474 [19]; 1000 nM): 113%
- normalised viability (SK-BR-3; 1000 nM): 108%
- normalised viability (DU-4475 [20]; 30 nM): 119%
- normalised viability (CAL-85-1; 30 nM): 87.1%
- normalised viability (MDA-MB-436 [21]; 1000 nM): 81.4%
- normalised viability (Hs578T; 1000 nM): 100%
- normalised viability (HCC1143; 1000 nM): 106%
- normalised viability (CAL-51 [22]; 30 nM): 111%
- normalised viability (BT-549; 1000 nM): 88.7%
- normalised viability (MDA-MB-468; 1000 nM): 105%

Compound: C/C(=C\c1csc(C)n1)[C@@H]1C[C@@H]2O[C@]2(C)CCC[C@H](C)[C@H](O)[C@@H](C)C(=O)C(C)(C)[C@@H](O)CC(=O)O1 [Patupilone]
- drug sensitivity score (MDA-MB-231 [1]): 9.94
- drug sensitivity score (MFM-223 [2]): 3
- drug sensitivity score (CAL-148 [3]): 8.8
- drug sensitivity score (HDQ-P1 [4]): 0
- drug sensitivity score (HCC1599 [5]): 0
- drug sensitivity score (MDA-MB-453 [6]): 0
- drug sensitivity score (HCC1937 [7]): 0
- drug sensitivity score (BT-474 [8]): 8.09
- drug sensitivity score (DU-4475 [9]): 0
- drug sensitivity score (MDA-MB-436 [10]): 10.2
- drug sensitivity score (CAL-51 [11]): 21
- normalised viability (MDA-MB-231 [12]; 100 nM): 20.1%
- normalised viability (MFM-223 [13]; 100 nM): 45.9%
- normalised viability (CAL-148 [14]; 3 nM): 57.9%
- normalised viability (HDQ-P1 [15]; 3 nM): 107%
- normalised viability (CAL-120; 100 nM): 23.2%
- normalised viability (HCC1599 [16]; 100 nM): 92.2%
- normalised viability (MDA-MB-453 [17]; 3 nM): 63.5%
- normalised viability (HCC1937 [18]; 100 nM): 10.9%
- normalised viability (BT-474 [19]; 100 nM): 24.8%
- normalised viability (SK-BR-3; 100 nM): 15.8%
- normalised viability (DU-4475 [20]; 3 nM): 89.2%
- normalised viability (CAL-85-1; 3 nM): 49.4%
- normalised viability (MDA-MB-436 [21]; 100 nM): 39.5%
- normalised viability (Hs578T; 100 nM): 14.1%
- normalised viability (HCC1143; 100 nM): 34.3%
- normalised viability (CAL-51 [22]; 3 nM): 103%
- normalised viability (BT-549; 100 nM): 27.2%
- normalised viability (MDA-MB-468; 100 nM): 49.5%

Compound: CN(C)C[C@@H]1CCn2cc(c3ccccc32)C2=C(C(=O)NC2=O)c2cn(c3ccccc23)CCO1 [Ruboxistaurin]
- drug sensitivity score (MDA-MB-231 [1]): 7.98
- drug sensitivity score (MFM-223 [2]): 0
- drug sensitivity score (CAL-148 [3]): 10.6
- drug sensitivity score (HDQ-P1 [4]): 2.84
- drug sensitivity score (HCC1599 [5]): 0
- drug sensitivity score (MDA-MB-453 [6]): 4.68
- drug sensitivity score (HCC1937 [7]): 1.71
- drug sensitivity score (BT-474 [8]): 17.2
- drug sensitivity score (DU-4475 [9]): 0
- drug sensitivity score (MDA-MB-436 [10]): 5.62
- drug sensitivity score (CAL-51 [11]): 9.21
- normalised viability (MDA-MB-231 [12]; 1000 nM): 88.2%
- normalised viability (MFM-223 [13]; 1000 nM): 80.8%
- normalised viability (CAL-148 [14]; 30 nM): 116%
- normalised viability (HDQ-P1 [15]; 30 nM): 84.3%
- normalised viability (CAL-120; 1000 nM): 110%
- normalised viability (HCC1599 [16]; 1000 nM): 91.3%
- normalised viability (MDA-MB-453 [17]; 30 nM): 99.9%
- normalised viability (HCC1937 [18]; 1000 nM): 74%
- normalised viability (BT-474 [19]; 1000 nM): 93.1%
- normalised viability (SK-BR-3; 1000 nM): 86.6%
- normalised viability (DU-4475 [20]; 30 nM): 92.3%
- normalised viability (CAL-85-1; 30 nM): 105%
- normalised viability (MDA-MB-436 [21]; 1000 nM): 49.2%
- normalised viability (Hs578T; 1000 nM): 99.8%
- normalised viability (HCC1143; 1000 nM): 109%
- normalised viability (CAL-51 [22]; 30 nM): 101%
- normalised viability (BT-549; 1000 nM): 87.6%
- normalised viability (MDA-MB-468; 1000 nM): 85.2%

Compound: CN1CCN(CCOc2cc(OC3CCOCC3)c3c(Nc4c(Cl)ccc5c4OCO5)ncnc3c2)CC1 [Saracatinib]
- drug sensitivity score (MDA-MB-231 [1]): 0
- drug sensitivity score (MFM-223 [2]): 0
- drug sensitivity score (CAL-148 [3]): 0
- drug sensitivity score (HDQ-P1 [4]): 2.22
- drug sensitivity score (HCC1599 [5]): 0
- drug sensitivity score (MDA-MB-453 [6]): 0
- drug sensitivity score (HCC1937 [7]): 0
- drug sensitivity score (BT-474 [8]): 1.96
- drug sensitivity score (DU-4475 [9]): 0
- drug sensitivity score (MDA-MB-436 [10]): 9.13
- drug sensitivity score (CAL-51 [11]): 6.5
- normalised viability (MDA-MB-231 [12]; 1000 nM): 61.6%
- normalised viability (MFM-223 [13]; 1000 nM): 102%
- normalised viability (CAL-148 [14]; 30 nM): 78.7%
- normalised viability (HDQ-P1 [15]; 30 nM): 107%
- normalised viability (CAL-120; 1000 nM): 71.9%
- normalised viability (HCC1599 [16]; 1000 nM): 98%
- normalised viability (MDA-MB-453 [17]; 30 nM): 101%
- normalised viability (HCC1937 [18]; 1000 nM): 85%
- normalised viability (BT-474 [19]; 1000 nM): 85.2%
- normalised viability (SK-BR-3; 1000 nM): 90%
- normalised viability (DU-4475 [20]; 30 nM): 96.3%
- normalised viability (CAL-85-1; 30 nM): 82.6%
- normalised viability (MDA-MB-436 [21]; 1000 nM): 117%
- normalised viability (Hs578T; 1000 nM): 93.8%
- normalised viability (HCC1143; 1000 nM): 70.6%
- normalised viability (CAL-51 [22]; 30 nM): 103%
- normalised viability (BT-549; 1000 nM): 85.9%
- normalised viability (MDA-MB-468; 1000 nM): 87.2%
